Assay results from patent US12648944B2, “Masitinib for the treatment of castrate-resistant prostate cancer” (AB SCIENCE, priority 2021, dated 2026).

Test system: first line metastatic castrate-resistant prostate cancer (mCRPC)
Assay: Phase 3 randomized double blind placebo-controlled study of masitinib in combination with docetaxel (+ prednisone), progression-free survival
Format: in vivo, human
Settings: for Median progression-free survival (PFS): masitinib 6 mg/kg/day + docetaxel + prednisone; for Hazard Ratio / Risk Benefit: masitinib vs placebo, each + docetaxel + prednisone
Description: A prospective, multicenter, randomized, double blind, placebo-controlled, 2-parallel groups, phase 3 study was conducted to assess the efficacy and safety of masitinib in combination with docetaxel as compared to placebo in combination with docetaxel in first line metastatic castrate-resistant prostate cancer (mCRPC).
The objective of the study was to assess the efficacy and safety of masitinib in combination with docetaxel as compared to docetaxel in combination with placebo in first line metastatic castrate-resistant prostate cancer (mCRPC). Efficacy was assessed based on the progression-free survival (PFS), measured in months.
The patients recruited in the study consist of adult males suffering from prostate cancer who progressed to develop castration-resistant prostate cancer (CRPC) after castration treatment (reduction of androgens (e.g., testosterone, dihydrotestosterone (DHT)) by chemical or surgical means). These patients are considered to be patients in the first line metastatic castration-resistant prostate cancer (mCRPC).
The patients recruited in the study were randomized in two groups with a ratio 1:1: • Group 1: masitinib (6 mg/kg/day)+docetaxel (75 mg/m^2 6 cycles—8 or 10 cycles possible)+prednisone according to usual practice; • Group 2: placebo+docetaxel (75 mg/m^2 6 cycles—8 or 10 cycles possible)+prednisone according to usual practice.
Docetaxel was combined with prednisone as usual practice.
Patients were centrally randomized to one of the two treatment groups by IWRS (Interactive Web Response System) according to minimization method.
Inclusion criteria were: • Patient aged≥18 years old, with histologically or cytologically confirmed metastatic castrate-resistant prostate cancer (medical or surgical castration: androgens deprivation by GnRH agonist or antagonist or patient with surgical castration; hormonal castration confirmed biologically (testosterone<0.5 ng/ml) with one of the following criteria: • If surgical castration is done than there is no requirement to perform testosterone test. • Pre-treated with abiraterone with progressed disease documented, OR • With indication for initiating docetaxel administration (e.g., widespread visceral disease or rapidly progressive disease). • Patient with evidence of progressive metastatic disease. Disease progression at trial enrolment is based on progression in at least one variable as described in the Prostate Cancer Clinical Trials Working Group (PCWG2) definition of response and progression for disease manifestations in prostate cancer (Scher et al. J Clin Oncol. 2008; 26:1148-1159):
• Patient with ECOG≤1 • Patient with adequate organ function: […]

[1] = Halabi prognosis score H > 15 at baseline
[2] = Halabi prognosis score H > 16 at baseline
[3] = Halabi prognosis score H > 17 at baseline
[4] = Halabi prognosis score H > 18 at baseline
[5] = Halabi prognosis score H > 19 at baseline
[6] = Halabi prognosis score H > 20 at baseline
[7] = Halabi prognosis score H > 21 at baseline
[8] = Halabi prognosis score H > 22 at baseline
[9] = Halabi prognosis score H > 27 at baseline
[10] = Halabi prognosis score H > 33 at baseline
[11] = Halabi prognosis score H ≤ 15 at baseline
[12] = Halabi prognosis score H ≤ 16 at baseline
[13] = Halabi prognosis score H ≤ 17 at baseline
[14] = Halabi prognosis score H ≤ 18 at baseline
[15] = Halabi prognosis score H ≤ 19 at baseline
[16] = Halabi prognosis score H ≤ 20 at baseline
[17] = Halabi prognosis score H ≤ 21 at baseline
[18] = Halabi prognosis score H ≤ 22 at baseline
[19] = Halabi prognosis score H ≤ 27 at baseline
[20] = Halabi prognosis score H ≤ 33 at baseline

Compound: Cc1ccc(NC(=O)c2ccc(CN3CCN(C)CC3)cc2)cc1Nc1nc(-c2cccnc2)cs1 [MASITINIB, 4-(4-methylpiperazin-1-ylmethyl)-N-[4-methyl-3-(4-pyridin-3ylthiazol-2-ylamino)phenyl]benzamide]
- Median progression-free survival (PFS) [1]: 5.5 months
- Hazard Ratio [1]: 0.99
- Risk Benefit [1]: 1%
- Median progression-free survival (PFS) [2]: 5.5 months
- Hazard Ratio [2]: 1.00
- Risk Benefit [2]: 0%
- Median progression-free survival (PFS) [3]: 5.5 months
- Hazard Ratio [3]: 1.00
- Risk Benefit [3]: 0%
- Median progression-free survival (PFS) [4]: 5.5 months
- Hazard Ratio [4]: 1.00
- Risk Benefit [4]: 0%
- Median progression-free survival (PFS) [5]: 5.4 months
- Hazard Ratio [5]: 1.00
- Risk Benefit [5]: 0%
- Median progression-free survival (PFS) [6]: 4.9 months
- Hazard Ratio [6]: 1.04
- Risk Benefit [6]: −4%
- Median progression-free survival (PFS) [7]: 4.9 months
- Hazard Ratio [7]: 1.07
- Risk Benefit [7]: −7%
- Median progression-free survival (PFS) [8]: 4.9 months
- Hazard Ratio [8]: 1.09
- Risk Benefit [8]: −9%
- Median progression-free survival (PFS) [9]: 4.8 months
- Hazard Ratio [9]: 1.20
- Risk Benefit [9]: −20%
- Median progression-free survival (PFS) [10]: 4.1 months
- Hazard Ratio [10]: 1.34
- Risk Benefit [10]: −34%
- Median progression-free survival (PFS) [11]: 15 months
- Hazard Ratio [11]: 0.28
- Risk Benefit [11]: 72%
- Median progression-free survival (PFS) [12]: 9.0 months
- Hazard Ratio [12]: 0.35
- Risk Benefit [12]: 65%
- Median progression-free survival (PFS) [13]: 7.0 months
- Hazard Ratio [13]: 0.49
- Risk Benefit [13]: 51%
- Median progression-free survival (PFS) [14]: 7.0 months
- Hazard Ratio [14]: 0.54
- Risk Benefit [14]: 46%
- Median progression-free survival (PFS) [15]: 6.9 months
- Hazard Ratio [15]: 0.69
- Risk Benefit [15]: 31%
- Median progression-free survival (PFS) [16]: 7.0 months
- Hazard Ratio [16]: 0.65
- Risk Benefit [16]: 36%
- Median progression-free survival (PFS) [17]: 7.0 months
- Hazard Ratio [17]: 0.65
- Risk Benefit [17]: 35%
- Median progression-free survival (PFS) [18]: 6.9 months
- Hazard Ratio [18]: 0.65
- Risk Benefit [18]: 35%
- Median progression-free survival (PFS) [19]: 6.5 months
- Hazard Ratio [19]: 0.75
- Risk Benefit [19]: 25%
- Median progression-free survival (PFS) [20]: 6.4 months
- Hazard Ratio [20]: 0.81
- Risk Benefit [20]: 19%
- Median progression-free survival (PFS) (baseline ALP > 100 IU/L): 5.4 months
- Hazard Ratio (baseline ALP > 100 IU/L): 1.02
- Median progression-free survival (PFS) (baseline ALP > 150 IU/L): 4.9 months
- Hazard Ratio (baseline ALP > 150 IU/L): 1.14
- Median progression-free survival (PFS) (baseline ALP > 200 IU/L): 4.4 months
